These results are taken from PubChem BioAssay AID330 (DTP/NCI, 2004).

The test system of this experiment is P388 leukemia ip, CD2F1 mice, survival T/C. Put plainly: NCI In Vivo Anticancer Drug Screen. Data for tumor model P388 Leukemia (intraperitoneal) in CD2F1 (CDF1) mice. The note with it: endpoint: median survival time, higher = longer survival. Put shortly:
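Mice carrying the transplanted tumor received test compound or vehicle. Survival was recorded in each group, and the value is the treated-group measurement divided by that of the vehicle-treated control group.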

[1] abbreviates: dose: 100.0 mg/kg/injection, schedule: Q04DX003 (ip), vehicle: Klucel (hydroxypropylcellulose) (HPC).
[2] abbreviates: dose: 50.0 mg/kg/injection, schedule: Q01DX005 (ip), vehicle: saline with Tween-80.
[3] abbreviates: dose: 100.0 mg/kg/injection, schedule: Q01DX005 (ip), vehicle: saline with Tween-80.
Where [4] appears, read: dose: 200.0 mg/kg/injection, schedule: Q01DX005 (ip), vehicle: saline with Tween-80.
[5] abbreviates: dose: 50.0 mg/kg/injection, schedule: Q01DX005 (ip), vehicle: saline.
The mark [6] stands for this setting: dose: 100.0 mg/kg/injection, schedule: Q01DX005 (ip), vehicle: saline.
[7] abbreviates: dose: 200.0 mg/kg/injection, schedule: Q01DX005 (ip), vehicle: saline.
Where [8] appears, read: dose: 60.0 mg/kg/injection, schedule: Q01DX005 (ip), vehicle: saline with Tween-80.
The mark [9] stands for this setting: dose: 120.0 mg/kg/injection, schedule: Q01DX005 (ip), vehicle: saline with Tween-80.
Where [10] appears, read: dose: 240.0 mg/kg/injection, schedule: Q01DX005 (ip), vehicle: saline with Tween-80.

Molecules are shown by their SMILES. Values joined by “and” are separate entries in the source; they are usually repeats but may differ in a detail not shown here. Identical values can stand only once. Inconclusive results and toxic doses are left out.

On to `CCC1=C[C@H]2CN(CCc3c([nH]c4ccccc34)[C@@](C(=O)OC)(c3cc4c(cc3OC)N(C)[C@H]3[C@@](O)(C(=O)NC)[C@H](OC(C)=O)[C@]5(CC)C=CCN6CC[C@]43[C@@H]65)C2)C1`, for which the T/C by setting is: (dose: 0.02 mg/kg/injection, schedule: Q01DX009 (ip), vehicle: water) 102 % of control; (dose: 0.03 mg/kg/injection, schedule: Q01DX009 (ip), vehicle: water) 100 % of control; (dose: 0.12 mg/kg/injection, schedule: Q04DX003 (ip), vehicle: water) 151 % of control; (dose: 0.13 mg/kg/injection, schedule: Q01DX009 (ip), vehicle: water) 114 % of control and 203 % of control; (dose: 0.25 mg/kg/injection, schedule: Q01DX001 (ip), vehicle: water) 110 % of control; (dose: 0.25 mg/kg/injection, schedule: Q01DX009 (ip), vehicle: water) 220 % of control and 192 % of control and 214 % of control. Besides, the T/C is, setting by setting: (dose: 0.25 mg/kg/injection, schedule: Q04DX003 (ip), vehicle: water) 187 % of control; (dose: 0.5 mg/kg/injection, schedule: Q01DX001 (ip), vehicle: water) 119 % of control; (dose: 0.5 mg/kg/injection, schedule: Q04DX003 (ip), vehicle: water) 214 % of control; (dose: 1.0 mg/kg/injection, schedule: Q01DX009 (ip), vehicle: water) 87 % of control; (dose: 1.0 mg/kg/injection, schedule: Q04DX003 (ip), vehicle: water) 232 % of control; (dose: 2.0 mg/kg/injection, schedule: Q01DX001 (ip), vehicle: water) 150 % of control. The T/C (dose: 4.0 mg/kg/injection, schedule: Q01DX001 (ip), vehicle: water) was 154 % of control and the T/C (dose: 8.0 mg/kg/injection, schedule: Q01DX001 (ip), vehicle: water) is 180 % of control.

On to `Cc1cc(=O)n2c3c(c4c(cc13)c(CBr)cc(=O)n4C)OC2`, for which the T/C reads like this: (dose: 12.5 mg/kg/injection, schedule: Q01DX001 (ip), vehicle: Klucel (hydroxypropylcellulose) (HPC)) 96 % of control; (dose: 25.0 mg/kg/injection, schedule: Q01DX001 (ip), vehicle: Klucel (hydroxypropylcellulose) (HPC)) 96 % of control; (dose: 50.0 mg/kg/injection, schedule: Q01DX001 (ip), vehicle: Klucel (hydroxypropylcellulose) (HPC)) 112 % of control; (dose: 100.0 mg/kg/injection, schedule: Q01DX001 (ip), vehicle: Klucel (hydroxypropylcellulose) (HPC)) 101 % of control.

As for `C=C(C)CC1(C)CC(=O)C(C)=C(C)C1=O` (stereo unspecified), the T/C is 110 % of control (dose: 25.0 mg/kg/injection, schedule: Q04DX003 (ip), vehicle: Klucel (hydroxypropylcellulose) (HPC)); 105 % of control (dose: 50.0 mg/kg/injection, schedule: Q04DX003 (ip), vehicle: Klucel (hydroxypropylcellulose) (HPC)); 100 % of control under setting [1].

For `CCOC(=O)C1Cc2c([nH]c(=O)[nH]c2=O)OC1(C)c1ccccc1` (stereo unspecified), the T/C is, setting by setting: (dose: 50.0 mg/kg/injection, schedule: Q01DX005 (ip), vehicle: Klucel (hydroxypropylcellulose) (HPC)) 103 % of control; (dose: 100.0 mg/kg/injection, schedule: Q01DX005 (ip), vehicle: Klucel (hydroxypropylcellulose) (HPC)) 98 % of control; (dose: 200.0 mg/kg/injection, schedule: Q01DX005 (ip), vehicle: Klucel (hydroxypropylcellulose) (HPC)) 97 % of control.

Regarding `OCC1N2CCC(CC2)C1(O)O` (stereo unspecified), the T/C reads like this: (dose: 100.0 mg/kg/injection, schedule: Q04DX003 (ip), vehicle: suspension in saline) 96 % of control; (dose: 200.0 mg/kg/injection, schedule: Q04DX003 (ip), vehicle: suspension in saline) 100 % of control; (dose: 400.0 mg/kg/injection, schedule: Q04DX003 (ip), vehicle: suspension in saline) 106 % of control.

With `COc1cc2c(cc1C(C)c1ccccc1)OCO2` (stereo unspecified), the T/C was 96 % of control under setting [2], 96 % of control under setting [3] and 111 % of control under setting [4].

As for `OCN(CO)c1nc(CCC(Cl)(Cl)Cl)nc(N(CO)CO)n1`, the T/C is 96 % of control (dose: 12.5 mg/kg/injection, schedule: Q01DX009 (ip), vehicle: distilled water + Tween-80); 99 % of control (dose: 25.0 mg/kg/injection, schedule: Q01DX009 (ip), vehicle: distilled water + Tween-80); 114 % of control (dose: 50.0 mg/kg/injection, schedule: Q01DX009 (ip), vehicle: distilled water + Tween-80); 116 % of control (dose: 100.0 mg/kg/injection, schedule: Q01DX009 (ip), vehicle: distilled water + Tween-80); 89 % of control (dose: 200.0 mg/kg/injection, schedule: Q01DX009 (ip), vehicle: distilled water + Tween-80).

`CCCCCCCC(=O)C(=O)c1ccc(O)cc1O`: the T/C (dose: 50.0 mg/kg/injection, schedule: Q01DX009 (ip), vehicle: Klucel (hydroxypropylcellulose) (HPC)) was 109 % of control; the T/C (dose: 100.0 mg/kg/injection, schedule: Q01DX009 (ip), vehicle: Klucel (hydroxypropylcellulose) (HPC)) was 112 % of control; the T/C (dose: 200.0 mg/kg/injection, schedule: Q01DX009 (ip), vehicle: Klucel (hydroxypropylcellulose) (HPC)) is 113 % of control.

As for `CN(C)C(=O)CC(O)c1ccccc1` (stereo unspecified), the T/C under setting [5] is 102 % of control, the T/C under setting [6] is 105 % of control and the T/C under setting [7] is 100 % of control.

For `NC(=O)NCP(=O)(CNC(N)=O)CNC(N)=O`, the T/C runs as follows: under setting [5], 100 % of control; under setting [6], 97 % of control; under setting [7], 95 % of control.

For `CCCCCCC(=O)/C=C/c1ccc(O)cc1`, the T/C reads like this: (dose: 50.0 mg/kg/injection, schedule: Q01DX009 (ip), vehicle: saline with Tween-80) 105 % of control; (dose: 100.0 mg/kg/injection, schedule: Q01DX009 (ip), vehicle: saline with Tween-80) 105 % of control; (dose: 200.0 mg/kg/injection, schedule: Q01DX009 (ip), vehicle: saline with Tween-80) 105 % of control.

For `Nc1[nH]c(=S)ncc1-c1ccc(Cl)c(Cl)c1`, the T/C is, setting by setting: under setting [8], 94 % of control; under setting [9], 93 % of control; under setting [10], 88 % of control.

On to `COC(=O)c1ccc(C)c(NS(=O)(=O)c2ccc3c(c2)c(=O)sn3C)c1`, for which the T/C by setting is: under setting [2], 102 % of control; under setting [3], 110 % of control; under setting [4], 112 % of control.

On to `CC(=O)Nc1nncs1`, for which the T/C reads like this: (dose: 100.0 mg/kg/injection, schedule: Q04DX003 (ip), vehicle: saline sonified) 109 % of control; (dose: 200.0 mg/kg/injection, schedule: Q04DX003 (ip), vehicle: saline sonified) 90 % of control; (dose: 400.0 mg/kg/injection, schedule: Q04DX003 (ip), vehicle: saline sonified) 118 % of control.

Consider `Cc1cn(C)c2c1-c1c(cnn1-c1ccccc1)CC2`, for which the T/C under setting [1] was 100 % of control; the T/C (dose: 200.0 mg/kg/injection, schedule: Q04DX003 (ip), vehicle: Klucel (hydroxypropylcellulose) (HPC)) was 102 % of control; the T/C (dose: 400.0 mg/kg/injection, schedule: Q04DX003 (ip), vehicle: Klucel (hydroxypropylcellulose) (HPC)) was 93 % of control.

Turning to `CN1C(=O)N(C)C2(C(=O)N(C)C(=O)N2C)N(C)C1=O`, the T/C was 99 % of control and 102 % of control (dose: 60.0 mg/kg/injection, schedule: Q01DX005 (ip), vehicle: Klucel (hydroxypropylcellulose) (HPC)); 96 % of control (dose: 120.0 mg/kg/injection, schedule: Q01DX005 (ip), vehicle: Klucel (hydroxypropylcellulose) (HPC)); 98 % of control and 105 % of control (dose: 240.0 mg/kg/injection, schedule: Q01DX005 (ip), vehicle: Klucel (hydroxypropylcellulose) (HPC)).

Regarding `CC1C(C(=O)c2ccccc2)=CNc2ccccc21` (stereo unspecified), the T/C is 91 % of control (dose: 100.0 mg/kg/injection, schedule: Q01DX001 (ip), vehicle: saline with Tween-80); 96 % of control (dose: 200.0 mg/kg/injection, schedule: Q01DX001 (ip), vehicle: saline with Tween-80); 92 % of control (dose: 400.0 mg/kg/injection, schedule: Q01DX001 (ip), vehicle: saline with Tween-80).

As to `C=C(C)C12CC(COC(=O)c3ccccc3)C34OC5(OC1C3C1OC1(COC(=O)CCCCCCCCCCCCCCC)C(O)C1(O)C(OC(=O)c3ccccc3)C(C)C(C(C)CCCCCCC5O)C14)O2` (stereo unspecified), the T/C was 103 % of control (dose: 12.5 micrograms/kg/injection, schedule: Q01DX009 (ip), vehicle: saline); 103 % of control (dose: 25.0 micrograms/kg/injection, schedule: Q01DX009 (ip), vehicle: saline); 99 % of control (dose: 50.0 micrograms/kg/injection, schedule: Q01DX009 (ip), vehicle: saline).

Take `Nc1nc(N)c2cc([N+](=O)[O-])ccc2n1`: the T/C under setting [8] is 93 % of control, the T/C under setting [9] was 94 % of control and the T/C under setting [10] was 96 % of control.
